≈ marks a conversion by molar mass, not a printed value. Each block holds one compound with its values, some of them ahead of it.
Legend:
[1] = test system: HL-60; experiment: Cytotoxicity against human HL60 cells by MTT assay; assay type: functional, cell-based
[2] = test system: SK-OV-3; experiment: Cytotoxicity against human SKOV3 cells by MTT assay; assay type: functional, cell-based
[3] = test system: A549; experiment: Cytotoxicity against human A549 cells by MTT assay; assay type: functional, cell-based
[4] = test system: HepG2; experiment: Cytotoxicity against human HepG2 cells by MTT assay; assay type: functional, cell-based
[5] = test system: A-431; experiment: Cytotoxicity against human A431 cells by MTT assay; assay type: functional, cell-based
[6] = Therapeutic index, ratio of CC50 for human C8166 cells to EC50 for HIV1 3B; assay type: cell-based; settings: read-out: Ratio CC50/EC50
[7] = test system: Human immunodeficiency virus 1; experiment: Antiviral activity against HIV1 3B infected in human C8166 cells assessed as inhibition of viral replication; assay type: functional, organism-based; settings: Human immunodeficiency virus 1, 3B
[8] = Cytotoxicity against human C8166 cells after 3 days by MTT assay; assay type: cell-based

SMILES: CCN(CC)c1c(C#N)c(F)c2c(N)nc(N)nc2c1F
IC50 [1]: 6.4 µg/mL (≈ 21.9 µM)
IC50 [2]: 1 µg/mL (≈ 3.42 µM)
IC50 [3]: 26.5 µg/mL (≈ 90.7 µM)
IC50 [4]: 1.3 µg/mL (≈ 4.45 µM)
IC50 [5]: 16.4 µg/mL (≈ 56.1 µM)

SMILES: CCN(CC)c1c(C#N)c(F)c2c(N)nc(N)nc2c1Cl
IC50 [1]: 2.3 µg/mL (≈ 7.45 µM)
IC50 [2]: 0.4 µg/mL (≈ 1.3 µM)
IC50 [3]: 7.1 µg/mL (≈ 23 µM)
IC50 [4]: 2 µg/mL (≈ 6.48 µM)
IC50 [5]: 7.3 µg/mL (≈ 23.6 µM)

SMILES: COc1ccc(Nc2c(C#N)c(F)c3c(N)nc(N)nc3c2Cl)cc1
IC50 [1]: 2.2 µg/mL (≈ 6.13 µM)
IC50 [2]: 1.6 µg/mL (≈ 4.46 µM)
IC50 [3]: 103 µg/mL (≈ 287 µM)
IC50 [4]: 10.2 µg/mL (≈ 28.4 µM)
IC50 [5]: 5.1 µg/mL (≈ 14.2 µM)

EC50 [7]: 0.1 µg/mL (≈ 0.391 µM)
SMILES: N#Cc1c(F)c(Cl)c2nc(N)nc(N)c2c1F
selectivity ratio [6]: 7
IC50 [1]: 0.04 µg/mL (≈ 0.156 µM)
IC50 [2]: 0.14 µg/mL (≈ 0.548 µM)
IC50 [3]: 30.8 µg/mL (≈ 120 µM)
IC50 [4]: 4.8 µg/mL (≈ 18.8 µM)
IC50 [5]: 1.5 µg/mL (≈ 5.87 µM)
CC50 at 72 h [8]: 3.9 µg/mL (≈ 15.3 µM)

SMILES: N#Cc1c(N)c(Cl)c2nc(N)nc(N)c2c1Cl
IC50 [1]: 6.7 µg/mL (≈ 24.9 µM)
IC50 [2]: 0.8 µg/mL (≈ 2.97 µM)
IC50 [3]: 188 µg/mL (≈ 699 µM)
IC50 [4]: 3.7 µg/mL (≈ 13.7 µM)
IC50 [5]: 9.5 µg/mL (≈ 35.3 µM)

EC50 [7]: 3.2 µg/mL (≈ 7.34 µM)
SMILES: N#Cc1c(Sc2ccccc2)c(Cl)c2nc(N)nc(N)c2c1Sc1ccccc1
selectivity ratio [6]: 10.6
IC50 [1]: 26 µg/mL (≈ 59.6 µM)
IC50 [2]: 9.4 µg/mL (≈ 21.6 µM)
IC50 [3]: > 1000 µg/mL
IC50 [4]: 5 µg/mL (≈ 11.5 µM)
IC50 [5]: 32.4 µg/mL (≈ 74.3 µM)
CC50 at 72 h [8]: 46.8 µg/mL (≈ 107 µM)

SMILES: N#Cc1c(Nc2ccc(Cl)cc2)c(F)c2nc(N)nc(N)c2c1F
IC50 [1]: 35 µg/mL (≈ 101 µM)
IC50 [2]: 4.8 µg/mL (≈ 13.8 µM)
IC50 [3]: 115 µg/mL (≈ 332 µM)
IC50 [4]: 1 µg/mL (≈ 2.88 µM)
IC50 [5]: 4.5 µg/mL (≈ 13 µM)

SMILES: N#Cc1c(NCc2ccccc2)c(F)c2nc(N)nc(N)c2c1F
IC50 [1]: 14 µg/mL (≈ 42.9 µM)
IC50 [2]: 11 µg/mL (≈ 33.7 µM)
IC50 [3]: > 1000 µg/mL
IC50 [4]: 27.8 µg/mL (≈ 85.2 µM)
IC50 [5]: 12.9 µg/mL (≈ 39.5 µM)

SMILES: CCCCNc1c(C#N)c(NCCCC)c2c(N)nc(N)nc2c1F
IC50 [1]: 1.4 µg/mL (≈ 4.05 µM)
IC50 [2]: 1.6 µg/mL (≈ 4.63 µM)
IC50 [3]: > 1000 µg/mL
IC50 [4]: 2.6 µg/mL (≈ 7.53 µM)
IC50 [5]: 1 µg/mL (≈ 2.89 µM)

EC50 [7]: 0.2 µg/mL (≈ 0.64 µM)
SMILES: N#Cc1c(Nc2ccccc2)c(F)c2nc(N)nc(N)c2c1F
selectivity ratio [6]: 16.3
IC50 [1]: 40 µg/mL (≈ 128 µM)
IC50 [2]: 6.5 µg/mL (≈ 20.8 µM)
IC50 [3]: > 1000 µg/mL
IC50 [4]: 1.4 µg/mL (≈ 4.48 µM)
IC50 [5]: 7 µg/mL (≈ 22.4 µM)
CC50 at 72 h [8]: 6.9 µg/mL (≈ 22.1 µM)

SMILES: N#Cc1c(OCc2ccccc2)c(F)c2nc(N)nc(N)c2c1OCc1ccccc1
IC50 [1]: 62 µg/mL (≈ 149 µM)
IC50 [2]: 14 µg/mL (≈ 33.7 µM)
IC50 [3]: > 1000 µg/mL
IC50 [4]: 84 µg/mL (≈ 202 µM)
IC50 [5]: 68.3 µg/mL (≈ 164 µM)

SMILES: CC(C)(C)Nc1c(C#N)c(F)c2c(N)nc(N)nc2c1F
IC50 [1]: 18 µg/mL (≈ 61.6 µM)
IC50 [2]: 2.4 µg/mL (≈ 8.21 µM)
IC50 [3]: > 1000 µg/mL
IC50 [4]: 16.2 µg/mL (≈ 55.4 µM)
IC50 [5]: 11.9 µg/mL (≈ 40.7 µM)

EC50 [7]: 0.4 µg/mL (≈ 1.22 µM)
SMILES: N#Cc1c(Nc2ccccc2)c(Cl)c2nc(N)nc(N)c2c1F
selectivity ratio [6]: 13.5
IC50 [1]: 47 µg/mL (≈ 143 µM)
IC50 [2]: 3.7 µg/mL (≈ 11.3 µM)
IC50 [3]: > 1000 µg/mL
IC50 [4]: 5.9 µg/mL (≈ 17.9 µM)
IC50 [5]: 4.8 µg/mL (≈ 14.6 µM)
CC50 at 72 h [8]: 6.3 µg/mL (≈ 19.2 µM)

SMILES: N#Cc1c(NCc2ccccc2)c(Cl)c2nc(N)nc(N)c2c1F
IC50 [1]: 0.3 µg/mL (≈ 0.875 µM)
IC50 [2]: 0.8 µg/mL (≈ 2.33 µM)
IC50 [3]: 34.1 µg/mL (≈ 99.5 µM)
IC50 [4]: 1.4 µg/mL (≈ 4.08 µM)
IC50 [5]: 1.4 µg/mL (≈ 4.08 µM)

SMILES: N#Cc1c(Oc2ccccc2)c(Cl)c2nc(N)nc(N)c2c1Oc1ccccc1
IC50 [1]: 88 µg/mL (≈ 218 µM)
IC50 [2]: 14 µg/mL (≈ 34.7 µM)
IC50 [3]: > 1000 µg/mL
IC50 [4]: > 1000 µg/mL
IC50 [5]: > 1000 µg/mL

SMILES: CC(C)(C)Nc1c(C#N)c(F)c2c(N)nc(N)nc2c1Cl
IC50 [1]: 5.2 µg/mL (≈ 16.8 µM)
IC50 [2]: 2.1 µg/mL (≈ 6.8 µM)
IC50 [3]: 313 µg/mL (≈ 1010 µM)
IC50 [4]: 5.4 µg/mL (≈ 17.5 µM)
IC50 [5]: 6.5 µg/mL (≈ 21.1 µM)

SMILES: N#Cc1c(NCc2ccccc2)c(F)c2nc(N)nc(N)c2c1NCc1ccccc1
IC50 [1]: 7.2 µg/mL (≈ 17.4 µM)
IC50 [2]: 2.5 µg/mL (≈ 6.05 µM)
IC50 [3]: 13.9 µg/mL (≈ 33.6 µM)
IC50 [4]: 13.4 µg/mL (≈ 32.4 µM)
IC50 [5]: 20.7 µg/mL (≈ 50.1 µM)

EC50 [7]: 0.004 µg/mL (≈ 0.015 µM)
SMILES: Cc1cn([C@H]2C[C@H](N=[N+]=[N-])[C@@H](CO)O2)c(=O)[nH]c1=O [ZIDOVUDINE]
selectivity ratio [6]: 286000

EC50 [7]: 0.6 µg/mL (≈ 2.51 µM)
SMILES: N#Cc1c(F)c(F)c2nc(N)nc(N)c2c1F
selectivity ratio [6]: 59.6
IC50 [1]: 51 µg/mL (≈ 213 µM)
IC50 [2]: 8 µg/mL (≈ 33.5 µM)
IC50 [3]: > 1000 µg/mL
IC50 [4]: 5 µg/mL (≈ 20.9 µM)
IC50 [5]: 105 µg/mL (≈ 439 µM)
CC50 at 72 h [8]: 36.4 µg/mL (≈ 152 µM)

EC50 [7]: 13.3 µg/mL (≈ 36.1 µM)
SMILES: CCCSc1c(C#N)c(SCCC)c2c(N)nc(N)nc2c1Cl
selectivity ratio [6]: 11.5
IC50 [1]: 7.7 µg/mL (≈ 20.9 µM)
IC50 [2]: 1.2 µg/mL (≈ 3.26 µM)
IC50 [3]: > 1000 µg/mL
IC50 [4]: > 1000 µg/mL
IC50 [5]: 535 µg/mL (≈ 1450 µM)
CC50 at 72 h [8]: > 200 µg/mL

SMILES: CCCCNc1c(C#N)c(NCCCC)c2c(N)nc(N)nc2c1Cl
IC50 [1]: 0.7 µg/mL (≈ 1.93 µM)
IC50 [2]: 0.6 µg/mL (≈ 1.66 µM)
IC50 [3]: 2 µg/mL (≈ 5.53 µM)
IC50 [4]: 1.3 µg/mL (≈ 3.59 µM)
IC50 [5]: 2.5 µg/mL (≈ 6.91 µM)

SMILES: N#Cc1c(NCc2ccccc2)c(Cl)c2nc(N)nc(N)c2c1NCc1ccccc1
IC50 [1]: 8.5 µg/mL (≈ 19.8 µM)
IC50 [2]: 3.7 µg/mL (≈ 8.61 µM)
IC50 [3]: > 1000 µg/mL
IC50 [4]: 19.2 µg/mL (≈ 44.7 µM)
IC50 [5]: 716 µg/mL (≈ 1670 µM)

EC50 [7]: 1 µg/mL (≈ 3.47 µM)
SMILES: N#Cc1c(Cl)c(Cl)c2nc(N)nc(N)c2c1Cl
selectivity ratio [6]: 8
IC50 [1]: 19 µg/mL (≈ 65.9 µM)
IC50 [2]: 1.3 µg/mL (≈ 4.51 µM)
IC50 [3]: 29.7 µg/mL (≈ 103 µM)
IC50 [4]: 2.5 µg/mL (≈ 8.66 µM)
IC50 [5]: 3.3 µg/mL (≈ 11.4 µM)
CC50 at 72 h [8]: 14.3 µg/mL (≈ 49.6 µM)
